Data taken from article PMC6199744, “Development of Chemical Proteomics for the Folateome and Analysis of the Kinetoplastid Folateome” (ACS Infectious Diseases, 2018).

Tested on: L. major lysate proteins
Experiment: Multitargeted bead mixture chemoproteomics, single concentration competition, proteome-wide
Type: binding
Conditions: for fold change: vehicle control = 1

## Nc1nc2[nH]cc(CCc3ccc(C(=O)N[C@@H](CCC(=O)O)C(=O)O)cc3)c2c(=O)[nH]1 [PTX, pemetrexed]
Protein LMJF.15.0040 HY[…], CONSERVED (Possible lysine decarboxylase, putative)
  fold change: 0.69
Protein LMJF.15.0690 HY[…], CONSERVED
  fold change vs vehicle control: 1.2
Protein LMJF.15.1010 GLUTAMATE DEHYDROGENASE
  fold change: 1
Protein LMJF.15.1190 HY[…], CONSERVED (cyclic nucleotide-binding domain containing protein, putative)
  fold change: 0.98
Protein LMJF.16.0520 HY[…], CONSERVED
  fold change vs vehicle control: 0.76
Protein LMJF.16.0540 ASPARTATE CARBAMOYLTRANSFERASE, PUTATIVE
  fold change vs vehicle control: 0.92
Protein LMJF.16.0760, TRANSALDOLASE, PUTATIVE
  fold change relative to vehicle control: 1.18
Protein LMJF.16.0940 DYNEIN LIGHT CHAIN, PUTATIVE
  fold change vs vehicle control: 1.1
Protein LMJF.16.1180, COATOMER DELTA SUBUNIT-LIKE PROTEIN
  fold change relative to vehicle control: 1.15
Protein LMJF.16.1320, CYTOCHROME C, PUTATIVE
  fold change relative to vehicle control: 1.56
Protein LMJF.16.1420, HY[…], CONSERVED
  fold change relative to vehicle control: 1.13
Protein LMJF.17.0081, […] 1-ALPHA
  fold change relative to vehicle control: 1.06
Protein LMJF.18.0270, GLYCOGEN SYNTHASE KINASE, PUTATIVE
  fold change relative to vehicle control: 0.92
Protein LMJF.18.0580 P[…]-COA HYDRATASE, PUTATIVE
  fold change: 0.93
Protein LMJF.18.0680, CITRATE SYNTHASE, PUTATIVE
  fold change relative to vehicle control: 1.08
Protein LMJF.18.1010 DYNEIN LIGHT CHAIN 2B, CYTOPLASMIC, PUTATIVE
  fold change vs vehicle control: 1.03
Protein LMJF.18.1210 PROLYL-TRNA SYNTHETASE, PUTATIVE,BI[…]-TRNA SYNTHETASE, PUTATIVE
  fold change vs vehicle control: 0.97
Protein LMJF.18.1370 HEAT SHOCK PROTEIN, PUTATIVE
  fold change vs vehicle control: 1.02
Protein LMJF.19.0200 ADP,ATP CARRIER PROTEIN 1, MIT[…], PUTATIVE
  fold change: 1.02
Protein LMJF.19.1120 […]-ATP-ASE SUBUNIT, PUTATIVE
  fold change vs vehicle control: 0.91
Protein LMJF.19.1160 HY[…], CONSERVED
  fold change vs vehicle control: 0.92
Protein LMJF.19.1560 INOSINE-5'-MONOPHOSPHATE DEHYDROGENASE
  fold change vs vehicle control: 0.92
Protein LMJF.19.1620, POTASSIUM VOLTAGE-GATED CHANNEL, PUTATIVE
  fold change relative to vehicle control: 1.13
Protein LMJF.20.1280 SMALL MYR[…] 4, PUTATIVE
  fold change vs vehicle control: 0.89
Protein LMJF.21.0810 METHIONYL-TRNA SYNTHETASE, PUTATIVE
  fold change: 0.98
Protein LMJF.21.1450 ARGININE N-METHYLTRANSFERASE, TYPE II, PUTATIVE
  fold change: 0.98
Protein LMJF.21.1830 […] 5 SUBUNIT, PUTATIVE,20S […] ALPHA 5, (PUTATIVE)
  fold change vs vehicle control: 0.96
Protein LMJF.22.0230 AMINO ACID PERMEASE, PUTATIVE
  fold change: 1.09
Protein LMJF.22.0570 […] SUBUNIT 1, PUTATIVE
  fold change vs vehicle control: 1.04
Protein LMJF.22.0730 HY[…], CONSERVED
  fold change vs vehicle control: 0.96
Protein LMJF.22.0770 NADH-CYTOCHROME B5 REDUCTASE, PUTATIVE
  fold change: 0.82
Protein LMJF.23.0020, HY[…], CONSERVED
  fold change relative to vehicle control: 1.35
Protein LMJF.23.0040, PEROXIDOXIN
  fold change relative to vehicle control: 0.99
Protein LMJF.23.0080, HY[…], CONSERVED
  fold change relative to vehicle control: 0.97
Protein LMJF.23.0210 ATP-BINDING CASSETTE PROTEIN SUBFAMILY C, MEMBER 1, PUTATIVE
  fold change: 0.87
Protein LMJF.23.0370 CYTOCHROME C OXIDASE SUBUNIT 10, PUTATIVE
  fold change: 0.9
Protein LMJF.23.0540, ACETYL-COA SYNTHETASE, PUTATIVE
  fold change relative to vehicle control: 1.05
Protein LMJF.23.0560 KINESIN, PUTATIVE
  fold change vs vehicle control: 1.12
Protein LMJF.23.1410 HY[…], CONSERVED
  fold change vs vehicle control: 0.97
Protein LMJF.24.0070, HY[…], CONSERVED
  fold change relative to vehicle control: 1.03
Protein LMJF.24.0140 ANKYRIN/TPR REPEAT PROTEIN
  fold change: 0.86
Protein LMJF.24.0400 HY[…], CONSERVED (TPR repeat, putative)
  fold change: 0.87
Protein LMJF.24.1510, IGE-DEPENDENT HISTAMINE-RELEASING FACTOR, PUTATIVE
  fold change relative to vehicle control: 1.15
Protein LMJF.24.1630, SUCCINATE DEHYDROGENASE FLAVOPROTEIN, PUTATIVE
  fold change relative to vehicle control: 0.98
Protein LMJF.24.2060, TRANSKETOLASE
  fold change relative to vehicle control: 0.96
Protein LMJF.25.0010, BETA GALACTOFURANOSYL TRANSFERASE
  fold change relative to vehicle control: 1.17
Protein LMJF.25.0910, C[…]
  fold change relative to vehicle control: 1.55
Protein LMJF.25.1130 CYTOCHROME C OXIDASE VII, PUTATIVE
  fold change vs vehicle control: 0.92
Protein LMJF.25.1180, ATPASE BETA SUBUNIT, PUTATIVE
  fold change relative to vehicle control: 1
Protein LMJF.25.1610 HY[…], CONSERVED
  fold change vs vehicle control: 0.99
Protein LMJF.25.1620 HY[…], CONSERVED
  fold change vs vehicle control: 1.01
Protein LMJF.25.2340 SERINE/THREONINE-PROTEIN KINASE, PUTATIVE,PROTEIN KINASE, PUTATIVE
  fold change: 0.74
Protein LMJF.26.0630, HY[…], CONSERVED
  fold change relative to vehicle control: 0.9
Protein LMJF.26.1240 HEAT SHOCK PROTEIN 70-RELATED PROTEIN
  fold change vs vehicle control: 0.88
Protein LMJF.26.1710 CYTOCHROME C OXIDASE SUBUNIT V, PUTATIVE
  fold change: 0.94
Protein LMJF.26.2480 CDP-DIACYLGLYCEROL--INOSITOL 3-PHOSPHATIDYLTRANSFERASE, PUTATIVE
  fold change vs vehicle control: 1.06
Protein LMJF.26.2560 HY[…], CONSERVED
  fold change vs vehicle control: 0.66
Protein LMJF.27.0190 […] 7 SUBUNIT, PUTATIVE
  fold change vs vehicle control: 0.91
Protein LMJF.27.0650 HY[…], CONSERVED
  fold change: 0.99
Protein LMJF.27.0700 HY[…], CONSERVED
  fold change: 0.86
Protein LMJF.27.0760 GTP-binding protein homologue
  fold change vs vehicle control: 1.01
Protein LMJF.27.1060 CYSTEINE DESULFURASE, PUTATIVE
  fold change vs vehicle control: 0.96
Protein LMJF.27.1110 MIT[…] BINDING PROTEIN 1,GBP21, MRP1
  fold change vs vehicle control: 1.06
Protein LMJF.27.1250 HY[…], CONSERVED (Serine-threonine kinase receptor-associated protein, putative)
  fold change: 0.88
Protein LMJF.27.1390, 60S ACIDIC RIBOSOMAL SUBUNIT PROTEIN, PUTATIVE
  fold change relative to vehicle control: 1.07
Protein LMJF.27.1460 […]-ATP-ASE SUBUNIT 3, PUTATIVE
  fold change: 0.89
